Test results as given in patent US12371428B2 (Exelixis, Inc., priority 2019, dated 2025).
Counter-ions that a name gives are not always drawn.

Experiments:
[1] = biological target: Human MET (residues 956-1390) (Homo sapiens (Human), UniProt P08581); assay: Human Met kinase assay, HTRF KinEase (Example D-2); type: biochemical; details: protocol of Example D-2 (other compounds); read-out: c-Met IC50
How it was run: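 IC50 values come from a 4-parameter logistic fit of the […] fluorescence ratio, set between DMSO (100%) and reference compound at 1 μM (0%). Reactions held MET 956-1390 at 0.1 ng/well, ATP at Km, biotinylated peptide, 5 mM MgCl2, 1 mM MnCl2, 1 mM DTT and 3% DMSO, and ran 40 min at room temperature before streptavidin-XL665/Eu-antibody detection.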

[2] = biological target: Human MER (residues 528-999) (Homo sapiens (Human), UniProt Q12866); assay: Human Mer kinase assay, HTRF KinEase (Example C-2); type: biochemical; details: protocol of Example C-2 (other compounds)
Chain of Human MER (residues 528-999) (Q12866 528-999): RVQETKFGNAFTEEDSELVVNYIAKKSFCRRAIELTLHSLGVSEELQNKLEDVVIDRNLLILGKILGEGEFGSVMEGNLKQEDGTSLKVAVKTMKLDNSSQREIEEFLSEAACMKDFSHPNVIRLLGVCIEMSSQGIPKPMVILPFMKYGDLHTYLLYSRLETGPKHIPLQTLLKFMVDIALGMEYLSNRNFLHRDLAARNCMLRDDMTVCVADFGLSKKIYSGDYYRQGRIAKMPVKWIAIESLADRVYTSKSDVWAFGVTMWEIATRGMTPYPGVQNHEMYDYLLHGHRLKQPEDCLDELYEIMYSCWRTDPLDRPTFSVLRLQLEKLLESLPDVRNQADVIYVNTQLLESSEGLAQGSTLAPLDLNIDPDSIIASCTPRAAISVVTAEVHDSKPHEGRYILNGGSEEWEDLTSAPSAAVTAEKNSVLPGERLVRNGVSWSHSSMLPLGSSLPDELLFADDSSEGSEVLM
How it was run: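 IC50 values from 10 concentrations via 4-parameter logistic fit of […], with DMSO as 100% and 1 μM reference compound as 0% activity. Reaction: MER kinase domain 528-999, 1 ng/well, 40 μM ATP (Km), biotin peptide, 5 mM MgCl2, 1 mM DTT, 3% DMSO, room temperature 60 min; HTRF streptavidin-XL665/Eu-antibody detection.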

[3] = biological target: Met (phospho-Met, HGF-stimulated PC-3 prostate cancer cells) (Homo sapiens (Human), UniProt P08581); assay: Met autophosphorylation ELISA in PC-3 cells (Example F); type: cell-based; details: cellular activity; Met autophosphorylation ELISA in PC-3 cells; read-out: c-Met IC50
Chain of Met (phospho-Met, HGF-stimulated PC-3 prostate cancer cells) (P08581 25-1390): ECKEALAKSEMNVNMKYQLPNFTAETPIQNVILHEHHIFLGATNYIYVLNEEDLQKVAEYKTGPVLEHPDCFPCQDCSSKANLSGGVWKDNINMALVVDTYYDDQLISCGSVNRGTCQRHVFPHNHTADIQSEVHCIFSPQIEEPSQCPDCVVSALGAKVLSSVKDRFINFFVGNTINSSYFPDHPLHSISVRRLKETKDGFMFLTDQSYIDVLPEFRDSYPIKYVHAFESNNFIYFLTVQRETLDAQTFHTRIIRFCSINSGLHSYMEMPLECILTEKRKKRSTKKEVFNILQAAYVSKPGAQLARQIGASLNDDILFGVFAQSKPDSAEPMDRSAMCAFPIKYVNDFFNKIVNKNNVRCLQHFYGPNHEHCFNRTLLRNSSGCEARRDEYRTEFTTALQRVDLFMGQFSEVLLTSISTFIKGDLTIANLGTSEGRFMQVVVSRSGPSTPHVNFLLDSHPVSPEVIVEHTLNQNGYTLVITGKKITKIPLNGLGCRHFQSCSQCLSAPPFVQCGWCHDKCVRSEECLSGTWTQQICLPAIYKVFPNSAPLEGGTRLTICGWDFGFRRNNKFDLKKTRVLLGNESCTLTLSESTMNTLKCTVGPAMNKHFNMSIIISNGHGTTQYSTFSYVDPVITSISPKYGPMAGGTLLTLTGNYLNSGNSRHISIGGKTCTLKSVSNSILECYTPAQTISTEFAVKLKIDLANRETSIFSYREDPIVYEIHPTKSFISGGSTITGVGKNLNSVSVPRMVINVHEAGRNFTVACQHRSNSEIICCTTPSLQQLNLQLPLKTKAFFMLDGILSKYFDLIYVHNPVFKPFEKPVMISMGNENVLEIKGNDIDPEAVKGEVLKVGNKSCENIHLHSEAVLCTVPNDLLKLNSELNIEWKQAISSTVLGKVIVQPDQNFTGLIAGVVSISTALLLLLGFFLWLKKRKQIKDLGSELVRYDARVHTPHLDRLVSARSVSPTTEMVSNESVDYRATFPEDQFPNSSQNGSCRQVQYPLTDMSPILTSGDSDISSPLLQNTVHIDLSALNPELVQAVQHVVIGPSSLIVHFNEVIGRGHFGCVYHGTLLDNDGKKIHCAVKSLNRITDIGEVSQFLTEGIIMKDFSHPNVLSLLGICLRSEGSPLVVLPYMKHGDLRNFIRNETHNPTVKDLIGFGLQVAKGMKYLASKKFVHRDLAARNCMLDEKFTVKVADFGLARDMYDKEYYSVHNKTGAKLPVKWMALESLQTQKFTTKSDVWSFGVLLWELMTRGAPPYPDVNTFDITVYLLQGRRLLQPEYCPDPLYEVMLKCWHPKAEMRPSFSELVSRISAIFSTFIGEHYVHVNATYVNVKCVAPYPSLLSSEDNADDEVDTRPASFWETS
How it was run: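 PC-3 cells, serum-starved 3 h, were treated with compounds (8-point dose curve, 0.3% DMSO final) for 1 h, then stimulated with 100 ng/mL recombinant human HGF for 10 min. Lysate phospho-Met (panTyr) was quantified by sandwich ELISA; IC50 from 4-parameter logistic fit.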

[4] = biological target: Mer (phospho-Mer, MERTK-transfected 293A cells) (Homo sapiens (Human), UniProt Q12866); assay: Mer autophosphorylation ELISA in transient transfected 293A cells (Example H); type: cell-based; details: cellular activity; Mer autophosphorylation ELISA in transient transfected 293A cells
Chain of Mer (phospho-Mer, MERTK-transfected 293A cells) (Q12866 21-999): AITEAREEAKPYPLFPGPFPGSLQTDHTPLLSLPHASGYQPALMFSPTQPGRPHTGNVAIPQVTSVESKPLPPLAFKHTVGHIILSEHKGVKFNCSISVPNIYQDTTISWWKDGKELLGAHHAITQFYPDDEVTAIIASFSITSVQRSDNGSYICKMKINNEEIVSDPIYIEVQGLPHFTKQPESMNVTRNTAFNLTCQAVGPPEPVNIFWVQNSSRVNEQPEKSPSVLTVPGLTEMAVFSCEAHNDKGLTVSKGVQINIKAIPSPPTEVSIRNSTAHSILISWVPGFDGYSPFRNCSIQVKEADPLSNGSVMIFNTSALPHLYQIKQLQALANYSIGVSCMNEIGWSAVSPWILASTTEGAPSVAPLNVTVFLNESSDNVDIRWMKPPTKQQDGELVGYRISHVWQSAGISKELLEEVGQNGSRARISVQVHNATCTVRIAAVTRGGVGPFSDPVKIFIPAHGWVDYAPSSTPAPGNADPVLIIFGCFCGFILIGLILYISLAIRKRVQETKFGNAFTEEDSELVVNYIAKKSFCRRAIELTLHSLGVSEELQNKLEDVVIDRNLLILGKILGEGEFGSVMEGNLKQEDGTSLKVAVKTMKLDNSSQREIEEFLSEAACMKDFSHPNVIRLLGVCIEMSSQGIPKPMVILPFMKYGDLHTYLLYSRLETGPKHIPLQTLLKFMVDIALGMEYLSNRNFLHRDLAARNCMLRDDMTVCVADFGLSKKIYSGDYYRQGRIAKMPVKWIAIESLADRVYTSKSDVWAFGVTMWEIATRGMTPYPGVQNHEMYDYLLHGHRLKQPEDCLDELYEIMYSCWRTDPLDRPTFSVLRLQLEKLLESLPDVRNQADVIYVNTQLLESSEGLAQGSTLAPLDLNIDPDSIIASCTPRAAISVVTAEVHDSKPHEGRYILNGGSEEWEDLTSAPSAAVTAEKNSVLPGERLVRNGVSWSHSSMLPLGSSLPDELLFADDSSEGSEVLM
How it was run: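 IC50 from 4-parameter logistic fit of phospho-Mer levels, quantified by ELISA against a phospho-Mer standard in lysates of MERTK-transfected 293A cells. Cells exposed 1 h to 8-point serial dilutions, serum-free, 0.3% DMSO; controls: DMSO (100%) and reference inhibitor (0%).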

Chain of Human MET (residues 956-1390) (P08581 956-1390): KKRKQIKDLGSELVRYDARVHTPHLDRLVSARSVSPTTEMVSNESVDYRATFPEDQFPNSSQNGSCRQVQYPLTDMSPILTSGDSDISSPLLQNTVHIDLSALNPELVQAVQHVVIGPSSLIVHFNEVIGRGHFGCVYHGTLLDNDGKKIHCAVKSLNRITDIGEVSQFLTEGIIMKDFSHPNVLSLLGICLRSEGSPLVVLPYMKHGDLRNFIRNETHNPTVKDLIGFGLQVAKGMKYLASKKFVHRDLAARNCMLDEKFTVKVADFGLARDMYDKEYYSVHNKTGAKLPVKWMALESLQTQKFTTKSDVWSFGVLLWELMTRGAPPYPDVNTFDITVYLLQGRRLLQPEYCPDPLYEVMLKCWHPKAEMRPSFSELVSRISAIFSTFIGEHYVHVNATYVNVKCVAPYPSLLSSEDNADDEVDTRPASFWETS

IC50 [1]	IC50 [2]	IC50 [3]	IC50 [4]	SMILES
< 100 nM	< 100 nM	< 100 nM	< 100 nM	COc1cc2nccc(Oc3ccc(NC(=O)c4ccnn(-c5ccc(F)cc5)c4=O)cc3F)c2nc1OC [Compound 386, N-[4-[(6,7-dimethoxy-1,5-naphthyridin-4-yl)oxy]-3-fluorophenyl]-2-(4-fluorophenyl)-3-oxopyridazine-4-carboxamide]
< 100 nM	< 100 nM	< 100 nM	< 100 nM	COc1cc2nccc(Oc3ccc(NC(=O)c4cn(C)c(C)c(-c5ccc(F)cc5)c4=O)cc3Cl)c2nc1OC [Compound 388, N-[3-chloro-4-[(6,7-dimethoxy-1,5-naphthyridin-4-yl)oxy]phenyl]-5-(4-fluorophenyl)-1,6-dimethyl-4-oxopyridine-3-carboxamide]
< 100 nM	< 100 nM	< 100 nM	< 100 nM	CCn1cc(C(=O)Nc2ccc(Oc3ccnc4cc(OC)c(OC)nc34)c(F)c2)c(=O)c(-c2ccc(F)cc2C)c1CO [Compound 283, N-[4-[(6,7-Dimethoxy-1,5-naphthyridin-4-yl)oxy]-3-fluorophenyl]-1-ethyl-5-(4-fluoro-2-methylphenyl)-6-(hydroxymethyl)-4-oxopyridine-3-carboxamide]
< 100 nM	< 100 nM	< 100 nM	< 100 nM	COc1cc2nccc(Oc3ccc(NC(=O)c4nccn(-c5ccc(F)cc5)c4=O)cc3)c2nc1OC [Compound 384, N-[4-[(6,7-dimethoxy-1,5-naphthyridin-4-yl)oxy]phenyl]-4-(4-fluorophenyl)-3-oxopyrazine-2-carboxamide]
< 100 nM	< 100 nM	< 100 nM	< 100 nM	Cc1nc(C)c(-c2ccc(F)cc2)c(O)c1C(=O)Nc1ccc(Oc2ccnc3ccc(OCCN4CCOCC4)nc23)c(F)c1 [Compound 355, N-[3-fluoro-4-[[6-(2-morpholin-4-ylethoxy)-1,5-naphthyridin-4-yl)oxy]phenyl]-5-(4-fluorophenyl)-4-hydroxy-2,6-dimethylpyridine-3-carboxamide]
100 to 300 nM	< 100 nM	< 100 nM	< 100 nM	COc1ccc2nccc(Oc3ccc(NC(=O)c4c(C)cc(C)n(-c5ccc(F)cc5)c4=O)cc3)c2n1 [Compound 290, 1-(4-Fluorophenyl)-N-[4-[(6-methoxy-1,5-naphthyridin-4-yl)oxy]phenyl]-4,6-dimethyl-2-oxopyridine-3-carboxamide]
< 100 nM	< 100 nM	< 100 nM	< 100 nM	COc1cc2nccc(Oc3ccc(NC(=O)c4c(C)ccn(-c5ccc(F)cc5)c4=O)cc3F)c2nc1OC [Compound 286, N-[4-[(6,7-Dimethoxy-1,5-naphthyridin-4-yl)oxy]-3-fluorophenyl]-1-(4-fluorophenyl)-4-methyl-2-oxopyridine-3-carboxamide]
< 100 nM	< 100 nM	< 100 nM	< 100 nM	COc1cnc2c(Oc3ccc(NC(=O)c4cn(C)cc(-c5ccccc5)c4=O)cc3F)ccnc2c1 [Compound 40, N-[3-Fluoro-4-[(7-methoxy-1,5-naphthyridin-4-yl)oxy]phenyl]-1-methyl-4-oxo-5-phenylpyridine-3-carboxamide hydrochloride]
< 100 nM	< 100 nM	< 100 nM	< 100 nM	COCc1ncc(C(=O)Nc2ccc(Oc3ccnc4cc(OC)c(OC)nc34)c(F)c2)c(O)c1-c1ccc(F)cc1 [Compound 301, N-[4-[(6,7-Dimethoxy-1,5-naphthyridin-4-yl)oxy]-3-fluorophenyl]-5-(4-fluorophenyl)-4-hydroxy-6-(methoxymethyl)pyridine-3-carboxamide]
< 100 nM	< 100 nM	< 100 nM	< 100 nM	COc1cc2nccc(Oc3ccc(NC(=O)c4cccn(-c5ccc(F)cc5)c4=O)cc3F)c2nc1OC [Compound 293, N-[4-[(6,7-Dimethoxy-1,5-naphthyridin-4-yl)oxy]-3-fluorophenyl]-1-(4-fluorophenyl)-2-oxopyridine-3-carboxamide]
< 100 nM	< 100 nM	< 100 nM	< 100 nM	COc1cc2nccc(Oc3ccc(NC(=O)C4=C5CCCN5CC(c5ccc(F)cc5)C4=O)cc3F)c2nc1OC (racemic) [Compound 373, N-[4-[(6,7-dimethoxy-1,5-naphthyridin-4-yl)oxy]-3-fluorophenyl]-6-(4-fluorophenyl)-7-oxo-2,3,5,6-tetrahydro-1H-indolizine-8-carboxamide]
< 100 nM	< 100 nM	< 100 nM	< 100 nM	COc1cc2nccc(Oc3ccc(NC(=O)c4nn(C(C)C)c(C)c(-c5ccc(F)cc5)c4=O)cc3F)c2nc1OC [Compound 364, N-[4-[(6,7-dimethoxy-1,5-naphthyridin-4-yl)oxy]-3-fluorophenyl]-5-(4-fluorophenyl)-6-methyl-4-oxo-1-propan-2-ylpyridazine-3-carboxamide]
< 100 nM	< 100 nM	< 100 nM	< 100 nM	COc1cnc2c(Oc3ccc(NC(=O)c4c(C)cc(C)n(-c5ccc(F)cc5)c4=O)cc3F)ccnc2c1 [Compound 280, N-[3-Fluoro-4-[(7-methoxy-1,5-naphthyridin-4-yl)oxy]phenyl]-1-(4-fluorophenyl)-4,6-dimethyl-2-oxopyridine-3-carboxamide]
< 100 nM	< 100 nM	< 100 nM	< 100 nM	COc1cnc2c(Oc3ccc(NC(=O)c4nccn(-c5ccc(F)cc5)c4=O)cc3)ccnc2c1 [Compound 382, 4-(4-fluorophenyl)-N-[4-[(7-methoxy-1,5-naphthyridin-4-yl)oxy]phenyl]-3-oxopyrazine-2-carboxamide]
100 to 300 nM	< 100 nM	< 100 nM	< 100 nM	Cc1ncc(C(=O)Nc2ccc(Oc3ccnc4cc(-c5cnn(C(F)F)c5)ccc34)cc2)c(O)c1-c1ccc(F)cc1 [Compound 377, N-[4-[7-[1-(difluoromethyl)pyrazol-4-yl]quinolin-4-yl]oxyphenyl]-5-(4-fluorophenyl)-4-hydroxy-6-methylpyridine-3-carboxamide]
< 100 nM	< 100 nM	< 100 nM	< 100 nM	COc1ccc2nccc(Oc3ccc(NC(=O)c4ncc(C)n(-c5ccc(F)cc5)c4=O)cc3)c2n1 [Compound 378, 4-(4-fluorophenyl)-N-[4-[(6-methoxy-1,5-naphthyridin-4-yl)oxy]phenyl]-5-methyl-3-oxopyrazine-2-carboxamide]
< 100 nM	< 100 nM	< 100 nM	< 100 nM	Cc1ccc2nccc(Oc3ccc(NC(=O)c4c(C)cc(C)n(-c5ccc(F)cc5)c4=O)cc3F)c2n1 [Compound 297, N-[3-Fluoro-4-[(6-methyl-1,5-naphthyridin-4-yl)oxy]phenyl]-1-(4-fluorophenyl)-4,6-dimethyl-2-oxopyridine-3-carboxamide]
< 100 nM	< 100 nM	< 100 nM	< 100 nM	CCn1cc(C(=O)Nc2ccc(Oc3ccnc4cc(OC)c(OC)nc34)cc2)c(=O)c(-c2ccc(F)cc2)c1CO [Compound 272, N-[4-[(6,7-Dimethoxy-1,5-naphthyridin-4-yl)oxy]phenyl]-1-ethyl-5-(4-fluorophenyl)-6-(hydroxymethyl)-4-oxopyridine-3-carboxamide]
< 100 nM	< 100 nM	< 100 nM	< 100 nM	COc1cc2nccc(Oc3ccc(NC(=O)c4cn(C)c(CO)c(-c5ccc(F)cc5C)c4=O)cc3F)c2nc1OC [Compound 282, N-[4-[(6,7-Dimethoxy-1,5-naphthyridin-4-yl)oxy]-3-fluorophenyl]-5-(4-fluoro-2-methylphenyl)-6-(hydroxymethyl)-1-methyl-4-oxopyridine-3-carboxamide]
< 100 nM	< 100 nM	< 100 nM	< 100 nM	COc1cnc2c(Oc3ccc(NC(=O)c4cnc(C)n(-c5ccc(F)cc5)c4=O)cc3F)ccnc2c1 [Compound 265, N-[3-Fluoro-4-[(7-methoxy-1,5-naphthyridin-4-yl)oxy]phenyl]-1-(4-fluorophenyl)-2-methyl-6-oxopyrimidine-5-carboxamide]
< 100 nM	< 100 nM	< 100 nM	< 100 nM	Cc1nc(C)n(-c2ccc(F)cc2)c(=O)c1C(=O)Nc1ccc(Oc2ccnc3cc(OCc4ccccc4)cnc23)c(F)c1 [Compound 278, 1-(4-Fluorophenyl)-N-[3-fluoro-4-[(7-phenylmethoxy-1,5-naphthyridin-4-yl)oxy]phenyl]-2,4-dimethyl-6-oxopyrimidine-5-carboxamide]
